Reference: US9387184B2, “Pharmaceutical compositions for combination therapy” (Saniona A/S, priority 2012, dated 2016)

Columns and labels:
[1] = Locomotor activity in telemetrized rats (infrared sensor); format: in vivo, rat
Procedure: (§1) Five months-old male normotensive Sprague-Dawley rats (508±18 g, Harlan, Horst, The Netherlands) were housed in solid bottomed Plexiglas cages with dust free wood chippings and a cardboard tube. Holding rooms were maintained under a 12-h light/dark cycle (lights off: 1500 h). Ambient temperature was 18.0 to 22.0° C. and relative air humidity of 40 to 60%. A dim red light was the sole source of illumination during the dark period. The rats had ad libitum standard chow (Altromin 1324, 10% kcal from fat, energy density 2.85 kcal per g, Altromin GmbH, Lage, Germany) and water. All experiments were approved (permission no. 2007/561-1343) and conducted in accordance with the guidelines of the Animal Experimentation Inspectorate, Ministry of Justice, Denmark.
Upon 2-3 weeks of post-surgery recovery, the rats were transferred to fully automated food intake monitoring cages (HM-2, MBRose, Faaborg, Denmark) modified to simultaneously determine individualized food intake (by microchip, see below) and cardiovascular condition (by telemetry). For combined telemetry analysis, two receivers (RPC-1, Data Sciences International, St. Paul, Minn.) were placed in the bottom of each HM-2 food intake monitoring cages thereby fully covering the cage surface area. […] Locomotor activity was detected by an integrated infrared sensor placed above the cage. […] Body weight was measured daily. […]
Data were fed into a standard graphic and statistical analysis program (GraphPad Prism v.4.03). Body weight data were calculated as absolute values (g) or daily body weight gain relative (control level=100%) to the first day of drug administration (day 0). Body weight gain and food intake were expressed as means±S.E.M of n individual animals. After acquisition of telemetry data, 12-hour means were calculated using Microsoft Excel 2007. […] All data were evaluated using a repeated-measure one-way ANOVA with Tukey's post-hoc test was applied to perform statistical comparisons between treatment groups. […]

[2] = Real-time feeding monitoring (food intake) in telemetrized rats; format: in vivo, rat; conditions: for effect on food intake per se: antihypertensive drug alone, p.o.; for effect on tesofensine-induced reduction in food intake: co-administered with tesofensine 3.0 mg/kg p.o., Metoprolol 10, 20 mg/kg, Telmisartan 1.0, 3.0 mg/kg p.o.
Procedure: as §1
(§2) Upon 2-3 weeks of post-surgery recovery, the rats were transferred to fully automated food intake monitoring cages (HM-2, MBRose, Faaborg, Denmark) modified to simultaneously determine individualized food intake (by microchip, see below) and cardiovascular condition (by telemetry). For combined telemetry analysis, two receivers (RPC-1, Data Sciences International, St. Paul, Minn.) were placed in the bottom of each HM-2 food intake monitoring cages thereby fully covering the cage surface area. The modified HM-2 food intake monitoring cages were placed in a modified ventilated cabinet with lightproof doors and a light kit for cabinet-based control of light-dark cycle (Scanbur BK, Karslunde, Denmark) being similar to that in the holding rooms. Cabinet temperature was 24.0 to 26.0° C. and relative air humidity of 40 to 60%. The animals were habituated to the HM-2 food intake monitoring system for at least 5 days prior to initiation of drug treatment procedures. Prior to re-housing to the fully automated food intake monitoring cages, the rats were subcutaneuosly injected with a microchip (#402575, eVet, Haderslev, Denmark) to simultaneously identify, and in real-time mode to track feeding behavior of each individual animal throughout the entire experiment. Locomotor activity was detected by an integrated infrared sensor placed above the cage. Standard HM-2 control unit settings are reported previously in further details^7. All drugs and saline vehicle were administered 30 min before dark onset. All rats received the same treatment in each individual experiment, i.e. a parallel study design was used, and a wash-out period of at least 5 days was used between treatments to assure re-establishment of baseline levels of food intake, locomotor activity, heart rate and blood pressure. The home cage was removed from the HM-2 food intake monitoring system during the drug administration procedure and returned immediately after completion of the drug administration, whereupon automated monitoring of feeding behavior and cardiovascular parameters of each individual animal was resumed. Body weight was measured daily. Body weight and microstructural food intake analysis was performed using a data reporting software (HMView, MBRose, Faaborg, Denmark).
(§3) Data were fed into a standard graphic and statistical analysis program (GraphPad Prism v.4.03). Body weight data were calculated as absolute values (g) or daily body weight gain relative (control level=100%) to the first day of drug administration (day 0). Body weight gain and food intake were expressed as means±S.E.M of n individual animals. After acquisition of telemetry data, 12-hour means were calculated using Microsoft Excel 2007. Finally, statistical analysis and data presentation (mean±S.E.M.) was performed using GraphPad Prism v.4.03). All data were evaluated using a repeated-measure one-way ANOVA with Tukey's post-hoc test was applied to perform statistical comparisons between treatment groups. A p-value less than 0.05 was considered statistically significant.
(§4) All drugs were administered p.o. (1.0 ml/kg). […]

[3] = Telemetric monitoring of heart rate and blood pressure in rats; format: in vivo, rat
Procedure: as §1
The rats were implanted at Harlan laboratories, Horst, the Netherlands, with Data Science International (DSI, St. Paul, USA) Physiotel PA-C40 transmitters according to the manufactures description. In brief, the rats were anaesthetized with isoflurane, ventilated, and a laparotomy was performed under aseptic conditions. A pressure catheter was inserted and sealed in place with Vetbond (3M, St. Paul, USA) into the isolated abdominal aorta. Finally, the transmitter was placed on top of the intestines, in parallel to the long axis of the body, and secured to the abdominal wall, where after the abdominal muscle layer and skin was closed with solvable sutures. The animals were allowed full post-surgical recovery before shipment. Blood pressure (systolic and diastolic arterial blood pressure) and heart rate (pulse rate) data were collected at a sampling rate of 500 Hz using Dataquest A.R.T (v.4.3) and Ponemah software (v.5.0) (DSI, St. Paul, USA) using factory-provided calibration values for the individual transmitters and an Ambient Pressure Reference Monitor (DSI, St. Paul, USA) to ensure accurate blood pressure measurements. Data were collected continuously for 48 h and binned in 5 s intervals.
as §2, with “The home cage was removed from the HM-2 food intake monitoring system during the drug administration procedure and returned immediately after completion of the drug administration, whereupon automated monitoring of feeding behavior and cardiovascular parameters of each individual animal was resumed. Body weight was measured daily. Body weight and microstructural food intake analysis was performed using a data reporting software (HMView, MBRose, Faaborg, Denmark).” left out

[4] = Body weight in telemetrized rats; format: in vivo, rat; conditions: for effect on body weight regulation per se: antihypertensive drug alone, p.o.; for effect on tesofensine-induced reduction in body weight: co-administered with tesofensine 3.0 mg/kg p.o., Metoprolol 10, 20 mg/kg, Telmisartan 1.0, 3.0 mg/kg p.o.
Procedure: as §1, §2, §3, §4

[5] = long-term treatment, corrected for placebo and diet effects; cited from earlier work
[6] = tesofensine 1.0-5.0 mg/kg p.o., acute
[7] = 3.0-5.0 mg/kg p.o., acute, evident for at least 48 hours, compared to vehicle-treated rats

SMILES: COCCc1ccc(OCC(O)CNC(C)C)cc1 (centres unmarked) [Metoprolol, 1-(Isopropylamino)-3-[4-(2-methoxyethyl)-phenoxy]-propan-2-ol]
- effect on tesofensine-induced locomotor activity ([1]; co-administered with tesofensine 3.0 mg/kg p.o., compared to tesofensine alone): completely prevented the locomotor activity inducing effect by tesofensine
- effect on food intake per se [2]: neither antihypertensive drug exhibited an effect
- effect on tesofensine-induced reduction in food intake [2]: did also not affect tesofensine-induced reductions in food intake
- effect on tesofensine-induced tachycardia ([3]; Metoprolol 10 mg/kg and 20 mg/kg co-treatment with tesofensine 3.0 mg/kg p.o.): fully reversed tesofensine-induced tachycardia
- effect on tesofensine-evoked increase in diastolic pressure ([3]; Metoprolol 20 mg/kg co-treatment with tesofensine 3.0 mg/kg p.o., first light phase, 12-24 hours post-treatment): reversed by co-treatment with Metoprolol
- effect on tesofensine-induced rise in systolic blood pressure ([3]; Metoprolol 20 mg/kg co-treatment with tesofensine 3.0 mg/kg p.o., for up to 24 hours): normalization of the systolic blood pressure
- diastolic blood pressure, drug alone ([3]; Metoprolol 20 mg/kg p.o. alone, first 24 hours): did not produce any significant effects on diastolic blood pressure
- duration of heart rate lowering effect ([3]; Metoprolol 10 and 20 mg/kg p.o., after administration): up to 24 hours
- effect on body weight regulation per se [4]: neither antihypertensive drug exhibited an effect
- effect on tesofensine-induced reduction in body weight [4]: did also not affect

SMILES: CCCc1nc2c(C)cc(-c3nc4ccccc4n3C)cc2n1Cc1ccc(-c2ccccc2C(=O)O)cc1 [Telmisartan]
- effect on food intake per se [2]: neither antihypertensive drug exhibited an effect
- effect on tesofensine-induced reduction in food intake [2]: did also not affect tesofensine-induced reductions in food intake
- effect on tesofensine-induced rise in heart rate ([3]; Telmisartan 1.0 and 3.0 co-treatment with tesofensine 3.0 mg/kg p.o.): did not revert the rise in heart rate
- heart rate and blood pressure, drug alone ([3]; Telmisartan alone 3.0 mg/kg p.o.): no effect on heart rate and blood pressure
- effect on Tesofensine-induced increases in diastolic and systolic blood pressure ([3]; Telmisartan co-treatment with tesofensine 3.0 mg/kg p.o., p>0.05 compared to Tesofensine alone): did not lead to a significant prevention of Tesofensine-induced hypertension
- heart rate compared to tesofensine alone ([3]; highest dose of Telmisartan (3.0 mg/kg) combined with tesofensine 3.0 mg/kg p.o.): significant increase in heart rate as compared to tesofensine administration alone
- effect on body weight regulation per se [4]: neither antihypertensive drug exhibited an effect
- effect on tesofensine-induced reduction in body weight [4]: did also not affect

SMILES: CCOC[C@@H]1[C@@H](c2ccc(Cl)c(Cl)c2)C[C@@H]2CC[C@H]1N2C [Tesofensine]
- weight loss in obese patients [5]: about 10%
- locomotor activity ([1]; 3.0-5.0 mg/kg p.o., acute): significant, albeit short-lasting, increase in locomotor activity
- duration of induced locomotor activity ([1]; first dark phase after acute dosing): up to 12 hours
- duration of hypophagic effect ([2]; 5.0 mg/kg p.o., acute): ≤ 48 h
- duration of hypophagic effect ([2]; 3.0-5.0 mg/kg p.o., acute): ≤ 24 h
- duration of hypophagic effect ([2]; all doses (1.0-5.0 mg/kg p.o.), acute): up to 12 hours
- food intake relative to the control level ([2]; tesofensine 5.0 mg/kg p.o., acute, 12 hours post-dosing, p<0.001): approximately 50%
- systolic blood pressure ([3]; tesofensine 3.0 mg/kg and 5.0 mg/kg p.o., up to 48 hours after administration): dose-dependent modest increase in systolic blood pressure
- heart rate ([3]; tesofensine 3.0 mg/kg p.o., Telmisartan combination study): significantly increase heart rate
- duration of heart rate increase [3, 6]: up to 48 hours
- heart rate [3, 6]: dose-dependent increase in heart rate at all doses tested
- diastolic blood pressure ([3]; tesofensine 1.0-5.0 mg/kg p.o., highest dose not significant (p=0.204)): trend towards a dose-dependent rise in diastolic blood pressure
- net body weight loss (absolute) [4, 7]: 8 to 11 g
- net body weight loss (relative) [4, 7]: 1.0-1.5%
